target: T1, APAT (acetyl-coenzyme A pregnenolone acetyltransferase) (Saccharomyces cerevisiae, UniProt P53296); test: Test of APAT enzyme activity (semi-purified APAT; substrate specificity and inhibition); type: biochemical, S. cerevisiae; details: 30 μM of each steroid tested and 100 μM of [3H]acetyl-CoA; semi-purified APAT
T1 construct: the semi-purified APAT transfers the acetate on 3β-ol, delta^4 or delta^5-steroids; endogenous in cells; host or cells: S. cerevisiae strain TGY73.4; endogenous enzyme purified in house from cell lysate (ZnCl2 precipitation, DEAE-Sephacel, Phenyl-Sepharose, Q-Sepharose, cholate-Sepharose)
T1 sequence (P53296 whole entry): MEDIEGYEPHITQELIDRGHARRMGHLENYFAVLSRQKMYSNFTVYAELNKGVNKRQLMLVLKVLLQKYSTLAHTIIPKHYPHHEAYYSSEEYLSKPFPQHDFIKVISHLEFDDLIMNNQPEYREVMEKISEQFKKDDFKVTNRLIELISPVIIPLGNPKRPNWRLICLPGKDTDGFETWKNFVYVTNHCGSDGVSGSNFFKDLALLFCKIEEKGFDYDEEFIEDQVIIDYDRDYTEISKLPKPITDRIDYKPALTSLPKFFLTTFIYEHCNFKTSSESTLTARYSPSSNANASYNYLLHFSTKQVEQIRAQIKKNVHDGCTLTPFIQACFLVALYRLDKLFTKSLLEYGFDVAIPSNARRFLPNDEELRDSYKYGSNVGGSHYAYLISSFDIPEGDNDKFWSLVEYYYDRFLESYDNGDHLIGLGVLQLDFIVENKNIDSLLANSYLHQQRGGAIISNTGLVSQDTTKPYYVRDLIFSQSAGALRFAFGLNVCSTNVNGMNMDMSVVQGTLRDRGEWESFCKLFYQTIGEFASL
Procedure: The pregnenolone is added in solution in 2 μl of tyloxapol (Sigma)/ethanol mixture (1:1) in a potassium phosphate buffer (20 mM) at pH 7.0. After incubation for 15 minutes at 30° C., the reaction is stopped by adding 2 ml of dichloromethane.
The steroids are extracted with dichloromethane, then separated by reversed-phase high-performance liquid chromatography (hereinafter: RP-HPLC) in isocratic elution conditions with acetonitrile in an Ultrasphere ODS column (Beckman) at 45° C. on an HP 1090 chromatograph (Hewlett-Packard) connected to a FLO-One 500 radiodetector (Packard) which permits measurement of the amount of pregnenolone [^3H]acetate formed.
One APAT unit is defined as the quantity of enzyme that produces 1 nmol of pregnenolone acetate per minute at 30° C., in the conditions described above.

| SMILES | Relative activity (%), Substrate a) [%] |
| --- | --- |
| CC(=O)[C@H]1CC[C@H]2[C@@H]3CCC4=C[C@@H](O)CC[C@]4(C)[C@H]3CC[C@]12C [4-pregnen-3βol-20-one] | 70 |
| CC(=O)[C@H]1CC[C@H]2[C@@H]3CC[C@@H]4C[C@@H](O)CC[C@]4(C)[C@H]3CC[C@]12C [5β-pregnan-3βol-20-one] | 1.8 |
| CC(=O)[C@@]1(O)CC[C@H]2[C@@H]3CC=C4C[C@@H](O)CC[C@]4(C)[C@H]3CC[C@@]21C [17α-OH pregnenolone, 17α-hydroxypregnenolone] | 89 |
| C[C@]12CC[C@@H]3c4ccc(O)cc4CC[C@H]3[C@@H]1CC[C@@H]2O [17β-oestradiol] | 5 |
| C[C@]12CC[C@H](O)CC1=CC[C@@H]1[C@@H]2CC[C@]2(C)C(=O)CC[C@@H]12 [DHEA, dehydroepiandrosterone] | 104 |
| CC(=O)[C@H]1CC[C@H]2[C@@H]3CC=C4C[C@@H](O)CC[C@]4(C)[C@H]3CC[C@]12C [Pregnenolone] | 100 |
| CC(C)CCC[C@@H](C)[C@H]1CC[C@H]2[C@@H]3CC=C4C[C@@H](O)CC[C@]4(C)[C@H]3CC[C@]12C [cholesterol] | 0.6 |
| CC(C)[C@@H](C)/C=C/[C@@H](C)[C@H]1CC[C@H]2C3=CC=C4C[C@@H](O)CC[C@]4(C)[C@H]3CC[C@]12C [ergosterol] | 0.4 |
| C[C@]12CC[C@@H]3c4ccc(O)cc4CC[C@H]3[C@@H]1CCC2=O [oestrone] | 2.5 |

same assay, conditions: 100 μM of each acyl donor and 30 μM of [3H]pregnenolone; semi-purified APAT

| SMILES | Relative activity (%), Substrate b) |
| --- | --- |
| CCCC(=O)SCCNC(=O)CCNC(=O)[C@H](O)C(C)(C)COP(=O)(O)OP(=O)(O)OC[C@H]1O[C@@H](n2cnc3c(N)ncnc32)[C@H](O)[C@@H]1OP(=O)(O)O [butyryl-CoA] | 16% |
| CCCCCC(=O)SCCNC(=O)CCNC(=O)[C@H](O)C(C)(C)COP(=O)(O)OP(=O)(O)OC[C@H]1O[C@@H](n2cnc3c(N)ncnc32)[C@H](O)[C@@H]1OP(=O)(O)O [hexanoyl-CoA] | 18% |
| CCCCCCCC/C=C\CCCCCCCC(=O)SCCNC(=O)CCNC(=O)[C@H](O)C(C)(C)COP(=O)(O)OP(=O)(O)OC[C@H]1O[C@@H](n2cnc3c(N)ncnc32)[C@H](O)[C@@H]1OP(=O)(O)O [oleoyl-CoA] | not detected |
| CCC(=O)SCCNC(=O)CCNC(=O)[C@H](O)C(C)(C)COP(=O)(O)OP(=O)(O)OC[C@H]1O[C@@H](n2cnc3c(N)ncnc32)[C@H](O)[C@@H]1OP(=O)(O)O [propionyl-CoA] | 33% |

same assay, conditions: reagents of sulfhydryl groups

| SMILES | Inhibition of APAT activity |
| --- | --- |
| O=C(O)c1cc(SSc2ccc([N+](=O)[O-])c(C(=O)O)c2)ccc1[N+](=O)[O-] [DTNB] | strongly inhibited |
| CCN1C(=O)C=CC1=O [NEM] | strongly inhibited |

same assay, conditions: zinc chloride 1 mM

| SMILES | Inhibition of APAT activity |
| --- | --- |
| [Cl-].[Cl-].[Zn+2] [zinc chloride] | complete |
